The assay concerns the target Beta-3 Adrenergic Receptor (Homo sapiens (Human), UniProt P13945). The assay is described as follows: Homogeneous Time-Resolved Fluorescence (HTRF) cAMP antagonist assay, IC50 determination. The class given is cell-based. As to conditions: CHO-K1 cells stably expressing recombinant receptor, isoproterenol at EC90. The procedure, abridged: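 Antagonist mode: isoproterenol at its predetermined EC90 added after compound to recombinant CHO-K1 cells in IBMX-containing PBS, 1 h, room temperature. Compounds tested as 5-fold, 10-point dilutions, top final typically 10 or 100 μM. HTRF signal converted to cAMP via standard curve, giving IC50.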
Beta-3 Adrenergic Receptor, sequence (P13945 whole entry, species assumed): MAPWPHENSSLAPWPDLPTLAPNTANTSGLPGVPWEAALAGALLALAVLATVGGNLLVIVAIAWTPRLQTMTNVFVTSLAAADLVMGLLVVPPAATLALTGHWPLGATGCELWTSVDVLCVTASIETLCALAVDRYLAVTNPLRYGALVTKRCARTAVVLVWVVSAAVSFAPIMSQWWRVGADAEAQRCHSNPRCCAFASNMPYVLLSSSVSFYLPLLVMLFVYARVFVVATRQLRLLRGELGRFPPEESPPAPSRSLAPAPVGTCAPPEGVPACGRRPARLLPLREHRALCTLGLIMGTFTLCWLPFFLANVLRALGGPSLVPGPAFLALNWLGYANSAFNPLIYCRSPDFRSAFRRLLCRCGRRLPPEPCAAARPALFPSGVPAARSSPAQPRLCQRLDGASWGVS
`CNS(=O)(=O)c1cccc(OC[C@@H](O)CNC2COC3(CCN(S(=O)(=O)c4ccc(C)c(Br)c4)CC3)C2)c1` (stereo partly drawn) [Compound 218, 3-((2S)-3-(8-(3-bromo-4-methylphenylsulfonyl)-1-oxa-8-azaspiro[4.5]decan-3-ylamino)-2-hydroxypropoxy)-N-methylbenzenesulfonamide]: the IC50 amounted to 0.0393 µM.

As for `CNS(=O)(=O)c1cccc(OC[C@@H](O)CNC2COC3(CCN(S(=O)(=O)c4c(Cl)ccc5nsnc45)CC3)C2)c1` (stereo partly drawn) [Compound 197, 3-((2S)-3-(8-(5-chlorobenzo[c][1,2,5]thiadiazol-4-ylsulfonyl)-1-oxa-8-azaspiro[4.5]decan-3-ylamino)-2-hydroxypropoxy)-N-methylbenzenesulfonamide], the IC50 stood at 0.0128 µM. The result for `CNS(=O)(=O)c1cccc(OC[C@@H](O)CNC2COC3(CCN(S(=O)(=O)c4cccc(C#N)c4)CC3)C2)c1` (stereo partly drawn) [Compound 32, 3-((2S)-3-(8-(3-cyanophenylsulfonyl)-1-oxa-8-azaspiro[4.5]decan-3-ylamino)-2-hydroxypropoxy)-N-methylbenzenesulfonamide] reads 0.0166 µM. `CNS(=O)(=O)c1cccc(OC[C@@H](O)CNC2COC3(CCN(S(=O)(=O)c4cccnc4N(C)C)CC3)C2)c1` (stereo partly drawn) [Compound 441, 3-((2S)-3-(8-(2-(dimethylamino)pyridin-3-ylsulfonyl)-1-oxa-8-azaspiro[4.5]decan-3-ylamino)-2-hydroxypropoxy)-N-methylbenzenesulfonamide]: the IC50 amounted to 0.0811 µM. The result for `CNS(=O)(=O)c1cccc(OC[C@@H](O)CNC2COC3(CCN(S(=O)(=O)c4cccc(-c5cnn(C)c5)c4)CC3)C2)c1` (stereo partly drawn) [Compound 61, 3-((2S)-2-hydroxy-3-(8-(3-(1-methyl-1H-pyrazol-4-yl)phenylsulfonyl)-1-oxa-8-azaspiro[4.5]decan-3-ylamino)propoxy)-N-methylbenzenesulfonamide] reads 0.0135 µM. Turning to `CNS(=O)(=O)c1cccc(OC[C@@H](O)CN[C@H]2COC3(CCN(S(=O)(=O)c4cnc5c(c4)N(C)CC4(CC4)O5)CC3)C2)c1` [Compound 474, 3-((S)-2-hydroxy-3-((R)-8-(1′-methyl-1′,2′-dihydrospiro[cyclopropane-1,3′-pyrido[2,3-b][1,4]oxazine]-7′-ylsulfonyl)-1-oxa-8-azaspiro[4.5]decan-3-ylamino)propoxy)-N-methylbenzenesulfonamide], the IC50 was found to be 0.0442 µM. Next, `CNS(=O)(=O)c1cccc(OC[C@@H](O)CNC2COC3(CCN(S(=O)(=O)c4cccc(-c5cccc(CN)c5)c4)CC3)C2)c1` (stereo partly drawn) [Compound 67, 3-((2S)-3-(8-(3′-(aminomethyl)biphenyl-3-ylsulfonyl)-1-oxa-8-azaspiro[4.5]decan-3-ylamino)-2-hydroxypropoxy)-N-methylbenzenesulfonamide]: 0.0231 µM. The result for `CNS(=O)(=O)c1cccc(OC[C@@H](O)CNC2COC3(CCN(S(=O)(=O)c4sc(-c5ccccc5)nc4C)CC3)C2)c1` (stereo partly drawn) [Compound 186, 3-((2S)-2-hydroxy-3-(8-(4-methyl-2-phenylthiazol-5-ylsulfonyl)-1-oxa-8-azaspiro[4.5]decan-3-ylamino)propoxy)-N-methylbenzenesulfonamide] reads 0.0157 µM; that for `CNS(=O)(=O)c1cccc(OC[C@@H](O)CNC2COC3(CCN(S(=O)(=O)c4ccc(F)c(F)c4)CC3)C2)c1` (stereo partly drawn) [Compound 141, 3-((2S)-3-(8-(3,4-difluorophenylsulfonyl)-1-oxa-8-azaspiro[4.5]decan-3-ylamino)-2-hydroxypropoxy)-N-methylbenzenesulfonamide], 0.0351 µM. Next, `CNS(=O)(=O)c1cccc(OC[C@@H](O)CN[C@H]2COC3(CCN(S(=O)(=O)c4cnc5c(Cl)cn(C)c5c4)CC3)C2)c1` [Compound 527, 3-((S)-3-((R)-8-(3-chloro-1-methyl-1H-pyrrolo[3,2-b]pyridin-6-ylsulfonyl)-1-oxa-8-azaspiro[4.5]decan-3-ylamino)-2-hydroxypropoxy)-N-methylbenzenesulfonamide]: 0.00903 µM; `CNS(=O)(=O)c1cccc(OC[C@@H](O)CNC2COC3(CCN(S(=O)(=O)c4ccc(-c5ccccn5)cc4)CC3)C2)c1` (stereo partly drawn) [Compound 402, 3-((2S)-2-hydroxy-3-(8-(4-(pyridin-2-yl)phenylsulfonyl)-1-oxa-8-azaspiro[4.5]decan-3-ylamino)propoxy)-N-methylbenzenesulfonamide]: 0.0204 µM. Consider `CCC(CC)CNS(=O)(=O)c1cccc(OC[C@@H](O)CNC2COC3(CCN(S(=O)(=O)c4ccc5ccccc5c4)CC3)C2)c1` (stereo partly drawn) [Compound 97, N-(2-ethylbutyl)-3-((2S)-2-hydroxy-3-(8-(naphthalen-2-ylsulfonyl)-1-oxa-8-azaspiro[4.5]decan-3-ylamino)propoxy)benzenesulfonamide], for which the concentration for half-maximal inhibition (IC50) turned out to be 0.127 µM. For `Cc1n[nH]c2ncc(S(=O)(=O)N3CCC4(CC3)C[C@@H](NC[C@H](O)COc3cccc(S(N)(=O)=O)c3)CO4)cc12` [Compound 564, 3-((S)-2-hydroxy-3-((R)-8-(3-methyl-1H-pyrazolo[3,4-b]pyridin-5-ylsulfonyl)-1-oxa-8-azaspiro[4.5]decan-3-ylamino)propoxy)benzenesulfonamide], the IC50 stood at 0.027 µM. For the molecule `O=S(=O)(NCCF)c1cccc(OC[C@@H](O)CN[C@H]2COC3(CCN(S(=O)(=O)c4ccc5ncccc5c4)CC3)C2)c1` [Compound 393, N-(2-fluoroethyl)-3-((S)-2-hydroxy-3-((R)-8-(quinolin-6-ylsulfonyl)-1-oxa-8-azaspiro[4.5]decan-3-ylamino)propoxy)benzenesulfonamide], the IC50 is 0.141 µM. With `CNS(=O)(=O)c1cccc(OC[C@@H](O)CNC2COC3(CCN(S(=O)(=O)c4ccc5c(c4)CCCC5)CC3)C2)c1` (stereo partly drawn) [Compound 16, 3-((2S)-2-hydroxy-3-(8-(5,6,7,8-tetrahydronaphthalen-2-ylsulfonyl)-1-oxa-8-azaspiro[4.5]decan-3-ylamino)propoxy)-N-methylbenzenesulfonamide], the IC50 amounted to 0.00747 µM. Take `CNS(=O)(=O)c1cccc(OC[C@@H](O)CNC2COC3(CCN(S(=O)(=O)c4cncc(-c5ccc(CN)cc5)c4)CC3)C2)c1` (stereo partly drawn) [Compound 341, 3-((2S)-3-(8-(5-(4-(aminomethyl)phenyl)pyridin-3-ylsulfonyl)-1-oxa-8-azaspiro[4.5]decan-3-ylamino)-2-hydroxypropoxy)-N-methylbenzenesulfonamide]: the IC50 turned out to be 0.0285 µM. Next, `CN(C)S(=O)(=O)c1cccc(OC[C@@H](O)CNC2COC3(CCN(S(=O)(=O)c4cccc(-c5ccc(CC#N)cc5)c4)CC3)C2)c1` (stereo partly drawn) [Compound 277, 3-((2S)-3-(8-(4′-(cyanomethyl)biphenyl-3-ylsulfonyl)-1-oxa-8-azaspiro[4.5]decan-3-ylamino)-2-hydroxypropoxy)-N,N-dimethylbenzenesulfonamide]: 0.0467 µM; `CCCn1cc(-c2cccc(S(=O)(=O)N3CCC4(CC3)CC(NC[C@H](O)COc3cccc(S(=O)(=O)NC)c3)CO4)c2)cn1` (stereo partly drawn) [Compound 80, 3-((2S)-2-hydroxy-3-(8-(3-(1-propyl-1H-pyrazol-4-yl)phenylsulfonyl)-1-oxa-8-azaspiro[4.5]decan-3-ylamino)propoxy)-N-methylbenzenesulfonamide]: 0.0143 µM.

`CNS(=O)(=O)c1cccc(OC[C@@H](O)CN[C@H]2COC3(CCN(S(=O)(=O)c4cnc5cc(C)ccc5c4O)CC3)C2)c1` [Compound 538, 3-((S)-2-hydroxy-3-((R)-8-(4-hydroxy-7-methylquinolin-3-ylsulfonyl)-1-oxa-8-azaspiro[4.5]decan-3-ylamino)propoxy)-N-methylbenzenesulfonamide]: the IC50 came to 0.0542 µM. Next, `CCC(C)NS(=O)(=O)c1cccc(OC[C@@H](O)CNC2COC3(CCN(S(=O)(=O)c4ccc5ccccc5c4)CC3)C2)c1` (stereo partly drawn) [Compound 10, N-sec-butyl-3-((2S)-2-hydroxy-3-(8-(naphthalen-2-ylsulfonyl)-1-oxa-8-azaspiro[4.5]decan-3-ylamino)propoxy)benzenesulfonamide]: 0.0492 µM; `CNS(=O)(=O)c1cccc(OC[C@@H](O)CN[C@H]2COC3(CCN(S(=O)(=O)c4cnc5cn[nH]c5c4)CC3)C2)c1` [Compound 502, 3-((S)-3-((R)-8-(1H-pyrazolo[4,3-b]pyridin-6-ylsulfonyl)-1-oxa-8-azaspiro[4.5]decan-3-ylamino)-2-hydroxypropoxy)-N-methylbenzenesulfonamide]: 0.0189 µM. Next, `CNS(=O)(=O)c1cccc(OC[C@@H](O)CNC2COC3(CCN(S(=O)(=O)c4cccc(-c5cnn(CC(C)C)c5)c4)CC3)C2)c1` (stereo partly drawn) [Compound 81, 3-((2S)-2-hydroxy-3-(8-(3-(1-isobutyl-1H-pyrazol-4-yl)phenylsulfonyl)-1-oxa-8-azaspiro[4.5]decan-3-ylamino)propoxy)-N-methylbenzenesulfonamide]: 0.0166 µM; `CNS(=O)(=O)c1cccc(OC[C@@H](O)CNC2COC3(CCN(S(=O)(=O)c4ccc(F)cc4Cl)CC3)C2)c1` (stereo partly drawn) [Compound 200, 3-((2S)-3-(8-(2-chloro-4-fluorophenylsulfonyl)-1-oxa-8-azaspiro[4.5]decan-3-ylamino)-2-hydroxypropoxy)-N-methylbenzenesulfonamide]: 0.0222 µM. As for `CNS(=O)(=O)c1cccc(OC[C@@H](O)CN[C@@H]2COC3(CCN(S(=O)(=O)c4ccc(OC)c(C)c4)CC3)C2)c1` [Compound 266, 3-((S)-2-hydroxy-3-((S)-8-(4-methoxy-3-methylphenylsulfonyl)-1-oxa-8-azaspiro[4.5]decan-3-ylamino)propoxy)-N-methylbenzenesulfonamide], the IC50 was determined as 0.0247 µM. Turning to `CNS(=O)(=O)c1cccc(OC[C@@H](O)CNC2COC3(CCN(S(=O)(=O)c4c(C)nn(-c5ccccc5)c4C)CC3)C2)c1` (stereo partly drawn) [Compound 261, 3-((2S)-3-(8-(3,5-dimethyl-1-phenyl-1H-pyrazol-4-ylsulfonyl)-1-oxa-8-azaspiro[4.5]decan-3-ylamino)-2-hydroxypropoxy)-N-methylbenzenesulfonamide], the IC50 came to 0.0475 µM.

In general, IC50 refers to the concentration needed to halve the response being measured.

Source of the values: patent US11987588B2, “Modulators of the beta-3 adrenergic receptor useful for the treatment or prevention of heart failure and disorders related thereto” (Arena Pharmaceuticals, Inc., priority 2017, dated 2024).
